In ChEMBL document CHEMBL2169826, “Pharmacokinetic benefits of 3,4-dimethoxy substitution of a phenyl ring and design of isosteres yielding orally available cathepsin K inhibitors” (J Med Chem, 2012):
Values after ≈ are worked out from the molar mass of the structure shown.

Experiments:
[1] = molecular target: Cathepsin B (Homo sapiens, UniProt P07858); experiment: Inhibition of human recombinant cathepsin-B using Z-Arg-Arg-AMC as substrate preincubated for 15 mins measured after 1 hr by QFRET assay
[2] = Volume of distribution at steady state in Alderley Park Han Wistar rat at 2 mg/kg, iv and 2 mg/kg, po; type: ADME, organism-based; conditions: in vivo, read-out: Vdss
[3] = physchem; conditions: buffer, pH 7.4
[4] = molecular target: T1, Cathepsin K (Homo sapiens, UniProt P43235); experiment: Inhibition of human recombinant cathepsin-k using Z-Phe-Arg-AMC as substrate preincubated for 15 mins measured after 1 hr by QFRET assay
T1 sequence (P43235 whole entry): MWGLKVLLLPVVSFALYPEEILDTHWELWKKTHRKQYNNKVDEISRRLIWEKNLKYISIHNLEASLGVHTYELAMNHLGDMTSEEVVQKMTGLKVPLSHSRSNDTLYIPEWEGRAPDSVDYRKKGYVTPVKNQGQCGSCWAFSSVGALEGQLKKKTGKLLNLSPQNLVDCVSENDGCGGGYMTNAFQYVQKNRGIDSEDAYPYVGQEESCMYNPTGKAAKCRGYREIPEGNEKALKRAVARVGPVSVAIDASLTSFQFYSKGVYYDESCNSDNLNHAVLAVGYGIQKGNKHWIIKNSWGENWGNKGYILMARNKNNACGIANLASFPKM

[5] = molecular target: Procathepsin L (Homo sapiens, UniProt P07711); experiment: Inhibition of human recombinant cathepsin-L using Z-Phe-Arg-AMC as substrate preincubated for 15 mins measured after 1 hr by QFRET assay
Chain of Procathepsin L (P07711 whole entry): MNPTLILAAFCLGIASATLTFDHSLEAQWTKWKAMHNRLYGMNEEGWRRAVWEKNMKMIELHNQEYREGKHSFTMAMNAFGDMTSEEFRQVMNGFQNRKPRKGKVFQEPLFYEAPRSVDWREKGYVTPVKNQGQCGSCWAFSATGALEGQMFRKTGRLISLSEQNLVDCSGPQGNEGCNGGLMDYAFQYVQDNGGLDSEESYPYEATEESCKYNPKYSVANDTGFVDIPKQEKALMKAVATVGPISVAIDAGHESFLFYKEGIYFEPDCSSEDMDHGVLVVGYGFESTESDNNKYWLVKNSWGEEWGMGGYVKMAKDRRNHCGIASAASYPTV

[6] = Metabolic stability of the compound in rat liver microsomes assessed as compound turnover after 120 mins
[7] = Metabolic stability of the compound in human liver microsomes assessed as compound turnover after 120 mins
[8] = in vitro; conditions: human, hepatocytes
[9] = Aqueous solubility of the compound in at pH 7.4; conditions: buffer
[10] = molecular target: Cathepsin S (Homo sapiens, UniProt P25774); experiment: Inhibition of human recombinant cathepsin-S using Z-Val-Val-Arg-AMC as substrate preincubated for 15 mins measured after 1 hr by QFRET assay
Chain of Cathepsin S (P25774 whole entry): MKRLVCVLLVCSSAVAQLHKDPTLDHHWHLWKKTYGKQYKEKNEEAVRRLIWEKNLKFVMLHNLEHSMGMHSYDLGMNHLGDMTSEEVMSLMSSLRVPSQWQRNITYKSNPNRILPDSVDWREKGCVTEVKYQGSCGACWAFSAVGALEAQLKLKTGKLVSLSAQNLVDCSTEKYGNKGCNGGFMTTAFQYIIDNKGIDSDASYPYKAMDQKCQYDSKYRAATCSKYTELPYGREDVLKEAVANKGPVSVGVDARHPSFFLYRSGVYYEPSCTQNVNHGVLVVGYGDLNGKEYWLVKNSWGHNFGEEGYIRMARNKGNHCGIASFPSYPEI

[11] = in vitro; conditions: rat, hepatocytes
[12] = Percentage unbound in rat plasma; type: ADME, cell-free
[13] = Percentage unbound in human plasma; type: ADME, cell-free
[14] = in vivo; conditions: Alderley Park Han Wistar, rat, plasma, iv, 2 mg/kg
[15] = Oral bioavailability in Alderley Park Han Wistar rat at 2 mg/kg; type: ADME, organism-based; conditions: in vivo
[16] = Inhibition of osteoclastogenesis in human bone marrow-derived stem cells assessed as reduction of pit formation by measuring TRACP5b activity after 7 days by bone TRAP assay; type: functional; conditions: 168 h
[17] = Oral bioavailability in Beagle dog at 1 mg/kg; type: ADME, organism-based, Canis lupus familiaris; conditions: in vivo
[18] = Percentage unbound in dog plasma; type: ADME, cell-free, Canis lupus familiaris
[19] = Volume of distribution at steady state in Beagle dog at 1 mg/kg, iv and 1 mg/kg, po; type: ADME, organism-based, Canis lupus familiaris; conditions: in vivo, read-out: Vdss
[20] = species: Homo sapiens; experiment: Selectivity ratio of IC50 for human recombinant cathepsin-K to IC50 for human recombinant cathepsin-B
[21] = molecular target: Cytochrome P450 3A4 (Homo sapiens, UniProt P08684); experiment: Inhibition of CYP3A4; type: ADME
Chain of Cytochrome P450 3A4 (P08684 whole entry): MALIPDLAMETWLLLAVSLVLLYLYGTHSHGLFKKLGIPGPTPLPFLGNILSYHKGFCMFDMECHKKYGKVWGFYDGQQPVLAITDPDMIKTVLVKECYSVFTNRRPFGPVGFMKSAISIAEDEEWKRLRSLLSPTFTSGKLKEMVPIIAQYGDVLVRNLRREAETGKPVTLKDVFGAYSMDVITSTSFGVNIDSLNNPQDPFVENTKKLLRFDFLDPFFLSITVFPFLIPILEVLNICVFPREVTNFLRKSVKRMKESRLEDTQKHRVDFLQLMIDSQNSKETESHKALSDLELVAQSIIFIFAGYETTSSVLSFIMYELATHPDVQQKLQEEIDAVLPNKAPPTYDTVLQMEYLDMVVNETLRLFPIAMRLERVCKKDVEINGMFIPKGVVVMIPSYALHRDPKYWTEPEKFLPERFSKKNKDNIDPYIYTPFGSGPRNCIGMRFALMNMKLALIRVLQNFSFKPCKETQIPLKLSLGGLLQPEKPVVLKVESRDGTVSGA

[22] = Oral bioavailability in rat; type: ADME, organism-based; conditions: in vivo
[23] = Volume of distribution at steady state in rat; type: ADME, organism-based; conditions: in vivo, read-out: Vdss
[24] = Clearance in rat; type: ADME, organism-based; conditions: in vivo
[25] = in vivo; conditions: beagle, dog, plasma, iv, 1 mg/kg

Structure (SMILES)	IC50 [1] [nM]	Vd [2] [L/kg]	logD [3]	IC50 [4] [nM]	IC50 [5] [nM]	microsomal CLint at 2 h [6] [µL/min/mg]	microsomal CLint at 2 h [7] [µL/min/mg]	hepatocyte CLint [8] [µL/min/1e6 cells]	solubility [9] [µM]	IC50 [10] [nM]	hepatocyte CLint [11] [µL/min/1e6 cells]	fraction unbound [12]	fraction unbound [13]	clearance [14] [mL/min/kg]	bioavailability [15] [%]	bioavailability [17] [%]	Ratio IC50 [20]	IC50 [16] [nM]	also measured
Cc1nn(C)c2cc(N3CCN(C(=O)[C@@H]4CCCC[C@H]4C(=O)NC4(C#N)CC4)[C@H](C)C3)ccc12	766	2.5	2.7	8	> 10000	15	8.8	4.7	> 1100	1250	4.6	0.3	0.28	19	87				
COc1ccc(N2CCN(C(=O)[C@@H]3CCCC[C@H]3C(=O)NC3(C#N)CC3)[C@H](C)C2)cc1OC	1850	1.2	1.9	4	> 10000				> 2400	1450		0.53	0.39		46	71		40	fraction unbound [18]: 0.39; Vd [19]: 0.8 L/kg
COc1ccc(N2CCN(C(=O)[C@@H]3CCCC[C@H]3C(=O)NC3(C#N)CC3)CC2)cc1OC	3060		1.4	9	> 10000	< 7.4	2.3		> 2500	2290			0.45	29	41	79	340	126	clearance [25]: 12 mL/min/kg

The next lines start with results.

IC50 [1] [nM]	Vd [2] [L/kg]	logD [3]	IC50 [4] [nM]	IC50 [5] [nM]	microsomal CLint at 2 h [6] [µL/min/mg]	microsomal CLint at 2 h [7] [µL/min/mg]	hepatocyte CLint [8] [µL/min/1e6 cells]	solubility [9] [µM]	IC50 [10] [nM]	hepatocyte CLint [11] [µL/min/1e6 cells]	fraction unbound [12]	fraction unbound [13]	clearance [14] [mL/min/kg]	bioavailability [15] [%]	bioavailability [17] [%]	Ratio IC50 [20]	Structure (SMILES)	IC50 [16] [nM]	also measured
1270			6	> 10000	6.8	2.2			1090							211	COc1ccc(N2CCN(C(=O)[C@@H]3CCCC[C@H]3C(=O)NCC#N)CC2)cc1OC		
1140	2.8	3.5	3	> 10000	33	9	25	200 (≈ 92.9 µg/mL)	1370	13	0.072	0.081	39	57			COc1cc(N2CCN(C(=O)[C@@H]3CCCC[C@H]3C(=O)NC3(C#N)CC3)[C@H](C)C2)ccc1C1CC1		INH [21]: 1.6 µM
	1.3				35						> 0.53	> 0.5	36	0			N#CC1(NC(=O)[C@@H]2CCCC[C@H]2C(=O)N2CCN(c3ccc(F)cc3)CC2)CC1		bioavailability [22]: 0%; Vd [23]: 1.3 L/kg; clearance [24]: 36 mL/min/kg
